Measurements: US8765433B2, “Alcohol dehydrogenases (ADH) useful for fermentive production of lower alkyl alcohols” (priority 2009, dated 2014)

Tests used:
[1] = system: Achromobacter xylosoxidans SadB (SadB), SEQ ID NO: 26; test: isobutanol oxidation kinetics; assay type: biochemical; details: 30° C., pH 8.8, 7.5 mM NAD
Procedure: (§1) As a routine practice, the crude extracts and purified proteins were assayed for butanol oxidation activity, in order to ensure that the recombinant proteins were active throughout the purification process. […] Alcohol oxidation activities were carried out in 50 mM sodium phosphate buffer at pH 8.8 and aldehyde reduction reactions were assayed in 190 mM potassium phosphate buffer at pH 7.0. Depending on the nature of reaction being carried out, the enzyme and cofactor stocks were diluted in the reaction buffers at the respective pHs. Either buffer or cell extract prepared from the proprietary E. coli strain (with no ADH plasmid) was used as the negative control for assays with purified protein and cell-free extracts, respectively.
(§2) Kinetic constants of the ADH enzymes were calculated and compared to identify those candidate ADH enzymes with the most desirable properties for the conversion of isobutyraldehyde to isobutanol in the last step of the engineered pathway for isobutanol production. The assays for determining the kinetic constants were carried out using initial rates from the assays described above. […] The concentration of a given enzyme was such that it was conducive for the measurement of initial velocities over a 1-min time course. For each enzyme, Michaelis-Menten plots were generated with a broad range of substrate concentrations. Rough estimates of KM were obtained, based on which the assays were redesigned so as to use substrate concentrations in the range 0.5 to 10 times the KM value, to be able to obtain the appropriate kinetic constants. […] When calculating the KI for isobutanol, the same reactions were carried out in the presence of varying concentrations of isobutanol (generally 0-535 mM) in the reaction (see FIG. 7, for example). Reactions with isobutanol substrate were performed at 30° C. in 50 mM Sodium phosphate buffer, pH 8.8, containing 7.5 mM NAD. The Enzyme kinetics module (Version 1.3) of SigmaPlot 11 (Systat Software, Inc.) was used to fit data to Michaelis-Menten equations and calculate the kinetic constants. The kcat/KM is derived from the individual numbers of kcat and KM and not an experimentally determined value. The ratios of the KM, KI, and kcat/KM for each candidate enzyme as compared to the same parameter for SadB are given in Table 9.
(§3) For those enzymes marked with an asterisk in Table 7, at least 3 assays were performed with separate preparations of the enzyme. All other numbers are values from either one assay or are averages from 2 assays performed with the same enzyme sample.

[2] = target: T1, Beijerinckia indica subsp. Indica ATCC 9039 ADH (BiADH), SEQ ID NO: 31 (Beijerinckia indica, UniProt B2IGW3); test: isobutanol oxidation kinetics; assay type: biochemical; details: 30° C., pH 8.8, 7.5 mM NAD
T1 sequence (B2IGW3 1-347): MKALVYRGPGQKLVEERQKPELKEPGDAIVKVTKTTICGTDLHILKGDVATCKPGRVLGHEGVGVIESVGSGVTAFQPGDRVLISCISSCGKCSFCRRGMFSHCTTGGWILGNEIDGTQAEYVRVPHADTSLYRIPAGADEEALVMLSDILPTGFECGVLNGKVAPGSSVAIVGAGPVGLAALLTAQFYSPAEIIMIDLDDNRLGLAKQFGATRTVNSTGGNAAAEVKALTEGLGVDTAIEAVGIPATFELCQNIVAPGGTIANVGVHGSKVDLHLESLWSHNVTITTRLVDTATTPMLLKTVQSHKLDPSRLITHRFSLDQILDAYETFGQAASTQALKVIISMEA
Procedure: as §1, §2, §3

CC(C)CO [isobutanol, 2-methylpropan-1-ol] was tested, and the Km [1] was 24 mM, the “kcat (isobutanol oxidation)” value [1] was “[Isobutanol oxidation: kcat = 2 sec^−1;” and the “kcat (isobutanol oxidation)” value [2] was “[Isobutanol oxidation: kcat = 9 sec^−1;”.
